Reference: patent US7442841B2, “Extraction process” (Invista North America S.A R.L., priority 2006, dated 2008)

Legend:
[1] = Liquid-liquid separation of cyclohexanol from cyclohexane, distribution coefficient by gas chromatography; assay type: physicochemical; conditions: for Cyclohexanol D (distribution coefficient): concentration in extracting solvent phase divided by concentration in cyclohexane phase, 1 mL stock solution + 1 mL extracting solvent; for Cyclohexanol Log D: extracting solvent/cyclohexane, equal volumes
Description: The distribution coefficient for the separation was then calculated.

[2] = Liquid-liquid separation of cyclohexanone from cyclohexane, distribution coefficient by gas chromatography; conditions: for Cyclohexanone D (distribution coefficient): concentration in extracting solvent phase divided by concentration in cyclohexane phase, 1 mL stock solution + 1 mL extracting solvent; for Cyclohexanone Log D: extracting solvent/cyclohexane, equal volumes
Description: As used herein, the term “distribution coefficient” referring to the liquid-liquid separation refers to the concentration of the separable component in the ionic liquid-based phase divided by the concentration of the separable component in the non-polar solvent-based phase. These concentrations are measured subsequent to settling, i.e. when the separation mixture has reached equilibrium subsequent to the vigorous shaking.
The general method used for all the examples was as follows.
Stock solution; 250 mg cyclohexanol (Molecular Weight=100 gmol^−1) and 250 mg cyclohexanone (Molecular Weight=98 gmol^−1) in 10 g of cyclohexane (Molecular Weight=84 gmol^−1).
Method: add 1 mL (0.8 g) of stock solution (20 mg each of cyclohexanol and cyclohexanone) to 1 mL of ionic liquid and shake vigorously. After settling time and complete phase separation, 3 drops of the top layer were added to a vial and filled with ethylene chloride. Gas chromatography analysis was used to provide the number of moles of the separable component in each liquid phase. The distribution coefficient for the separation was then calculated.

[3] = Extraction of octanol from octane, IL/Octane distribution coefficient; assay type: physicochemical; conditions: concentration of substrate in IL divided by concentration in octane
Description: (§1) A corresponding set of experiments was conducted to study the extraction of octanol and 2-octanone from octane using ionic liquids. The results are presented in Table 2 below, in which the IL/Octane distribution coefficient is calculated as the concentration of substrate in IL divided by the concentration of substrate in octane.

[4] = Extraction of 2-octanone from octane, IL/Octane distribution coefficient; assay type: physicochemical; conditions: concentration of substrate in IL divided by concentration in octane
Description: as §1

| SMILES | Cyclohexanol D (distribution coefficient) [1] | Cyclohexanol Log D [1] | Cyclohexanone D (distribution coefficient) [2] | Cyclohexanone Log D [2] | IL/Octane distribution coefficient Octanol [3] | IL/Octane distribution coefficient 2-Octanone [4] |
| --- | --- | --- | --- | --- | --- | --- |
| CCCC[N+]1(C)CCCC1 [Example 7] | 5.12 | 0.71 | 5.00 | – | – | – |
| C[S+](C)[O-] [Example 14, dimethyl sulfoxide, reference compound] | 24.79 | 1.39 | 2.80 | 0.45 | – | – |
| CC[n+]1ccccc1 [Example 2] | 1.60 | 0.20 | 3.40 | – | – | – |
| C[N+](C)(C)CCO [Example 5] | 2.91 | 0.46 | 3.00 | 0.478 | – | – |
| CCCCn1cc[n+](C)c1 [Example 4] | 2.32 | – | 1.51 | – | – | – |
| O [Example 1, H2O, reference compound] | 0.86 | −0.07 | 0.34 | −0.47 | – | – |
| CCCC[n+]1ccn(C)c1 [Example 3] | 1.77 | – | 2.11 | – | – | – |
| Br.CCCC[n+]1ccn(C)c1 [Example 17] | – | – | – | – | 1.44 | 0.16 |
| CCCCn1cc[n+](C)c1 [Example 15] | – | – | – | – | 1.06 | 2.08 |
| C[N+]1(CCCCS(=O)(=O)O)CCCC1 [Example 8] | 5.96 | 0.78 | 0.21 | – | – | – |
| C[S+](C)[O-] [Example 19, dimethyl sulfoxide, reference compound] | – | – | – | – | 7.67 | 0.89 |
| CCCCn1cc[n+](C)c1 [Example 6] | 4.10 | – | 4.38 | – | – | – |
